Measured values: patent publication US20230390411A1, “CONJUGATE AND USE THEREOF” (NANJING CHEMPION BIOTECHNOLOGY CO., LTD., priority 2021, published 2023)
Starred links: 1 amine or outer side, 2 acyl side, 3 side chain; linkers in the order of their positions; H or OH if unused. Non-standard residues stand in square brackets, D forms with d. Residues, ends and D or L forms follow the SMILES beside them. *: point of attachment. Exatecan = CC[C@@]1(O)C(=O)OCc2c1cc1n(c2=O)Cc2c-1nc1cc(F)c(C)c3c1c2[C@@H](N*)CC3; Dolaproine = CO[C@@H]([C@@H]1CCCN1)[C@@H](C)C(=O)O; Hexanoyl(6-maleimido) = O=C1C=CC(=O)N1CCCCCC(=O)*; Dil = CC[C@H](C)[C@H](NC)[C@@H](CC(=O)O)OC; NHCH2OCH2CO = O=C(COCN[*:1])[*:2]; X1 = C[C@@H](N*)[C@@H](O)c1ccccc1; NMeV = CN[C@H](C(=O)O)C(C)C

Tested on: NCI-N87 cells
Assay: Cytotoxicity assay (CellTiter-Glo)
Type: cell-based
Settings: 6 days, max 50 nM
Procedure: When the confluence of cultured NCI-N87 cells reached 70-90%, the cells were digested with trypsin. The trypsin was removed by centrifugation. […] The plate was incubated in a 5% CO2 incubator at 37° C. for 6 days. After the incubation was completed, the cell viability was detected with CellTiter-Glo reagent (Promega, G7573), and the specific cell viability value was measured by a multifunctional microplate reader (PerkinElmer, EnVision).

Row | Compound | Max Cytotoxicity % | IC50 (Homo sapiens, 144 h) | IC50
1 | C=C1C[C@@H]2CC[C@@]34C[C@H]5O[C@H]6[C@@H](O3)[C@H]3O[C@H](CC[C@@H]3O[C@H]6[C@H]5O4)CC(=O)C[C@@H]3[C@@H](OC)[C@@H](C[C@H](O)CN)O[C@H]3C[C@H]3O[C@@H](CC[C@@H]1O2)C[C@@H](C)C3=C [Eribulin, eribulin] | 93.99% | 0.22 nM | –
2 | CC[C@@]1(O)C(=O)OCc2c1cc1n(c2=O)Cc2c-1nc1cc(F)c(C)c3c1c2[C@@H](NC(=O)COCNC(=O)CNC(=O)[C@H](Cc1ccccc1)NC(=O)CNC(=O)CNC(=O)CCCCCN1C(=O)C=CC1=O)CC3 [DS8201 scaffold, Deruxtecan] ({Hexanoyl(6-maleimido)}-GGFG[NHCH2OCH2CO]-Exatecan) | 9.38% | – | –
3 | CC[C@H](C)[C@@H]([C@@H](CC(=O)N1CCC[C@H]1[C@H](OC)[C@@H](C)C(=O)N[C@H](C)[C@@H](O)c1ccccc1)OC)N(C)C(=O)[C@@H](NC(=O)[C@@H](NC)C(C)C)C(C)C [MMAE, monomethyl auristatin E] (H-[NMeV]V[Dil][Dolaproine]-X1) | 93.50% | – | 0.13 nM
